Reference: US20230027361A1, “METTL3 MODULATORS” (priority 2019, published 2023)
Like-named read-outs stand apart in the source and are kept apart here.

Key:
[1] = target: METTL3/METTL14 (Homo sapiens, UniProt Q86U44); test: METTL3-14 Standard Enzyme Assay (METTL3 biochemical assay)
Procedure, shortened: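 Tritium transfer from ³H-SAM (100 nM) to biotinylated RNA (100 nM) captured on streptavidin flashplates and counted by scintillation. Enzyme complex (2.5 nM) with compound, 5 min preincubation, 30 min reaction at ambient temperature, HEPES pH 7.5 buffer, stopped by excess unlabeled SAM.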

[2] = target: METTL1/WDR4 (Homo sapiens, UniProt Q9UBP6); test: METTL1 Assay (METTL1 biochemical assay)
Procedure, shortened: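 Radiometric methyltransfer by METTL1/WDR4 (6.25 nM f.c., 5 min preincubation) at ambient temperature in HEPES pH 7.5, KCl, MgCl2, DTT; started with 25 nM 3′-biotinylated RNA and 60 nM 3H-SAM, run 20 min, quenched with 15 μM cold SAM. Product captured on streptavidin flashplates (2 h, 25° C), counted by scintillation.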

[3] = target: T1, METTL16 (Homo sapiens, UniProt Q86W50); test: METTL16 Assay (METTL16 biochemical assay); settings: read-out: METTL16 IC50
T1 sequence (Q86W50 1-562): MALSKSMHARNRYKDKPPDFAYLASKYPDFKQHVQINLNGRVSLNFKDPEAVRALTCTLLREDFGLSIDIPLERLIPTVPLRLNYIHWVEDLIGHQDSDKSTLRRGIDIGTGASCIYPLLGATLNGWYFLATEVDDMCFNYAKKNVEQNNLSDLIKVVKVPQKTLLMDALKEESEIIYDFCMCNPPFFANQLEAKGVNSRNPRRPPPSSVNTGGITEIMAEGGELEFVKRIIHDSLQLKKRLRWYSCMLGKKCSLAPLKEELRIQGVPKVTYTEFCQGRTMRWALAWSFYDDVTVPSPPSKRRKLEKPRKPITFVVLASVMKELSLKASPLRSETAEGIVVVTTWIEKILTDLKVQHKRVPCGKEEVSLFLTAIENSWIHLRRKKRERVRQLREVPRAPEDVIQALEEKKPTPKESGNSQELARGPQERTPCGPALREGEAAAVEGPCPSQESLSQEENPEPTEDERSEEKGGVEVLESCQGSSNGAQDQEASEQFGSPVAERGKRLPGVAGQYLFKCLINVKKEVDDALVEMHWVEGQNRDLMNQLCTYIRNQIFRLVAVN
Method: Assays were performed in a 25 μl-volume in 384-well V-bottom polypropylene microplates (Greiner Bio-One, cat. No. 781280) at ambient temperature. Optimized 1× assay buffer was 20 mM HEPES pH 7.5, 50 mM KCl, 1 mM DTT, 0.01% Tween, 0.01% BSG, 0.004 U/μl RNAseOUT (cat. No. 10777019, ThermoFisher Scientific, Waltham, Mass.). For compound screening METTL16 (final concentration, f.c.=100 nM) was added using a Multidrop Combi (ThermoFisher Scientific, Waltham, Mass.) and preincubated for 5 min. Reactions were started by adding 3′ biotinylated RNA ([…]-biotin) (f.c.=50 nM), 3H-SAM (f.c.=200 nM) and non-radiolabeled SAM (f.c.=800 nM) substrates. Reactions proceeded for 20 minutes and were quenched with excess non-radioactive SAM (f.c.=100 μM). The reactions were then transferred to streptavidin-coated flashplates and incubated for 2 hours at 25° C. Following two washing cycles with 0.1% Tween-20, the plates were sealed and read on a TopCount (PerkinElmer, Waltham, Mass.) plate-based scintillation counter. For determination of kinetic parameters, reaction times were optimized so that measurements were taken during the initial velocity phase of the reaction.

[4] = target: PRMT5-MEP50 (Homo sapiens, UniProt O14744); test: PRMT5 Assay (PRMT5 biochemical assay)
Procedure, shortened: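 Radiometric methyltransferase read-out: after 60 min reaction, excess unlabelled SAM (15 μM) stops turnover and biotinylated H4 peptide (100 nM) carrying 3H-methyl from 250 nM 3H-SAM is captured on streptavidin flashplates (2 h, 25° C) for scintillation counting. Enzyme, 2.5 nM PRMT5-MEP50, was preincubated 5 min with compound in pH 8.0 Tris buffer with DTT and Tween.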

[5] = test system: MOLM-13 cells; test: MOLM-13 96 Hour Cell Proliferation Assay; assay type: cell-based; settings: Homo sapiens, MOLM-13, 96 h
Procedure, shortened: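 MOLM-13 cells in RPMI 1640 with 10% FBS were plated overnight at 37 °C, then exposed to compound dilutions at 0.25% DMSO final for 96 h. Viability was read by CellTiter-Glo luminescence, normalised to staurosporine (100% death) and DMSO (0% death) controls, and IC50 was fitted by 4-parameter logistic regression.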

[6] = read-out: METTL3 IC50; METTL3 biochemical assay
[7] = METTL1 biochemical assay; read-out: METTL1 IC50
[8] = read-out: PRMT5 IC50; PRMT5 biochemical assay
[9] = METTL3 biochemical assay; read-out: METTL3 IC50
[10] = read-out: METTL1 IC50; METTL1 biochemical assay
[11] = PRMT5 biochemical assay; read-out: PRMT5 IC50

METTL3/METTL14, sequence (Q86U44 whole entry, species assumed): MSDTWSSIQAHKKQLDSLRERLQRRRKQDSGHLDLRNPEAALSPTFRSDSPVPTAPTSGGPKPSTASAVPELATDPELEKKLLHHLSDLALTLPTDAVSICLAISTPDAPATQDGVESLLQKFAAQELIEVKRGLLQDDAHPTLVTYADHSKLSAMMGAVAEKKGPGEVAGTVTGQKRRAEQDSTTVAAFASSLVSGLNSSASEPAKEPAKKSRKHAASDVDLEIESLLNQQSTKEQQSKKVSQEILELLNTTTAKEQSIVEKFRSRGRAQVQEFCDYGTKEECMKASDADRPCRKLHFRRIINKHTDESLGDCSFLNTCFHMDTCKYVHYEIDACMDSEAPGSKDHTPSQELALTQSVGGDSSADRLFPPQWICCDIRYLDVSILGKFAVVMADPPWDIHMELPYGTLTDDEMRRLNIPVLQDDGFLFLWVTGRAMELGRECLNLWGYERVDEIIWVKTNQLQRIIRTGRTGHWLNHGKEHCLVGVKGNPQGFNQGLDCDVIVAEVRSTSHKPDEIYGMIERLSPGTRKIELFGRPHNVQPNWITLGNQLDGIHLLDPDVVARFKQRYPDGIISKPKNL
METTL3/METTL14, sequence (Q9HCE5 whole entry partner, species assumed): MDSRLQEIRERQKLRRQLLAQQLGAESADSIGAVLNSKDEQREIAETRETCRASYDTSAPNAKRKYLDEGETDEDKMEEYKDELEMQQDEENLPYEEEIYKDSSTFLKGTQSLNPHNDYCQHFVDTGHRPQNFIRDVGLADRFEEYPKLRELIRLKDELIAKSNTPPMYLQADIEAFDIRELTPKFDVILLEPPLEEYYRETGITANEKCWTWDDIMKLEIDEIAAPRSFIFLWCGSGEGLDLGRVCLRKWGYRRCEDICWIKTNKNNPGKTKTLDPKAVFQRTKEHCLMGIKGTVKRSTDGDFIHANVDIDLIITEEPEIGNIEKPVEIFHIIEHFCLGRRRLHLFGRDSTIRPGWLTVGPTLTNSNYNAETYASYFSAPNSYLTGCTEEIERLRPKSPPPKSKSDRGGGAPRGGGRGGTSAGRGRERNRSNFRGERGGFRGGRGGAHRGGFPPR
METTL1/WDR4, sequence (Q9UBP6 whole entry, species assumed): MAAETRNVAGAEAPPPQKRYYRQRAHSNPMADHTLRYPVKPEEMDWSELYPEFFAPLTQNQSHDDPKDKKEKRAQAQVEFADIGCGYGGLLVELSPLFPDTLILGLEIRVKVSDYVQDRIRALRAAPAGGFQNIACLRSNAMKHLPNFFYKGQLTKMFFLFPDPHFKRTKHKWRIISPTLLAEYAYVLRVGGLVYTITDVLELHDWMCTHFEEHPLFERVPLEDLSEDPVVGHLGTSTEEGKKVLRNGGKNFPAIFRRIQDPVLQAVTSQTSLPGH
METTL1/WDR4, sequence (P57081 whole entry partner, species assumed): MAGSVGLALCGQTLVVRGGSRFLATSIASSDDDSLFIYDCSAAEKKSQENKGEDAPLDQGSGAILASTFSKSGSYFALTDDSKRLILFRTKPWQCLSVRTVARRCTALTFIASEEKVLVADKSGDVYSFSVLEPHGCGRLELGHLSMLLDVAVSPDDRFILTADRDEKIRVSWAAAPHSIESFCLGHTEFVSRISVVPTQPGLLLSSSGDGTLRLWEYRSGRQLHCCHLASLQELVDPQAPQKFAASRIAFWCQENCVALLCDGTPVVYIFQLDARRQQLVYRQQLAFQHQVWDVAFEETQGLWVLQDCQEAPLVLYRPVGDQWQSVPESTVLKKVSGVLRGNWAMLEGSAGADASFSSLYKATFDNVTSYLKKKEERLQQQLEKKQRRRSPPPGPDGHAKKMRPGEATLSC
PRMT5-MEP50, sequence (O14744 whole entry): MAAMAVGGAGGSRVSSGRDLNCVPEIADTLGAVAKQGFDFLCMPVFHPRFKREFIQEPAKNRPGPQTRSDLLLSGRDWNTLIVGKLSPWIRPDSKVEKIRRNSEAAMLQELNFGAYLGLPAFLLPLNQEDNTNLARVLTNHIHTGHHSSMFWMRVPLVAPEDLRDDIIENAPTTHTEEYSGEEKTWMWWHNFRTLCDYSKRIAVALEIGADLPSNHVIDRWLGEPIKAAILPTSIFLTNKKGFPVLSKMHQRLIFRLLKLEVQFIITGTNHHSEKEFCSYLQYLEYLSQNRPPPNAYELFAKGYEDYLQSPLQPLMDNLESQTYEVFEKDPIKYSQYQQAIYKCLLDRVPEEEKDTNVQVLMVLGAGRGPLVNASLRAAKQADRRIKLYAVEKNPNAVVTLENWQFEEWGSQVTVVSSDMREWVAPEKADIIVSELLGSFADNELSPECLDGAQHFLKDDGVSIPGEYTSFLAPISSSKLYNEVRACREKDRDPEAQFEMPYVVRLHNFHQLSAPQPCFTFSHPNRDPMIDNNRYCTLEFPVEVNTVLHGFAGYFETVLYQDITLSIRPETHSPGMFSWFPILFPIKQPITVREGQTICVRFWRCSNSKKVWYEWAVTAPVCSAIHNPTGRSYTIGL
PRMT5-MEP50, sequence (Q9BQA1 whole entry partner): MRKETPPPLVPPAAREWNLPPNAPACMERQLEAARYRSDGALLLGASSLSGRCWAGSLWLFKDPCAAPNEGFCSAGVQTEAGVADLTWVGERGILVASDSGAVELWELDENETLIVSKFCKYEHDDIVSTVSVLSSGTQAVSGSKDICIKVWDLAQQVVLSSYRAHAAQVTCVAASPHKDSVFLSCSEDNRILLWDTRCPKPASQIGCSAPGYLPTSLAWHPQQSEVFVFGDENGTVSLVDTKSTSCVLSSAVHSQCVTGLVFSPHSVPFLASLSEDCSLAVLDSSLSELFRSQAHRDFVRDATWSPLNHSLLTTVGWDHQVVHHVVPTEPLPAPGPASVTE

| Structure (SMILES) | IC50 [1, 6] [nM] | IC50 [2, 7] [nM] | IC50 [3] [nM] | IC50 [4, 8] [nM] | IC50 [1, 9] [nM] | IC50 [2, 10] [nM] | IC50 [4, 11] [nM] | IC50 [5] [nM] |
| --- | --- | --- | --- | --- | --- | --- | --- | --- |
| CNc1ccc2ccc(OC[C@H]3O[C@@H](n4cc(-c5ccnn5C)c5c(N)ncnc54)[C@@H](F)[C@@H]3O)cc2n1 [I-37] | 10 to 100 | > 1000 | > 1000 | 100 to 1000 |  |  |  |  |
| Nc1ncnc2c1c(Br)cn2[C@@H]1O[C@H](COc2ccc3ccc(N4CCCC4)nc3c2)[C@@H](O)[C@H]1O [I-72] |  |  | > 1000 |  | 10 to 100 | > 1000 | 10 to 100 |  |
| Nc1ccc2ccc(OC[C@H]3O[C@@H](n4cc(Br)c5c(N)ncnc54)[C@H](O)[C@@H]3O)cc2n1 [I-71] |  |  | > 1000 |  | 10 to 100 | > 1000 | < 10 |  |
| CNc1ccc2ccc(OC[C@H]3O[C@@H](n4cc(Br)c5c(N)nccc54)[C@@H](F)[C@@H]3O)cc2n1 [I-41] |  |  | > 1000 |  | 100 to 1000 | > 1000 | 100 to 1000 |  |
| Nc1ncnc2c1ccn2[C@@H]1C[C@H](CCc2ccc3ccc(N4CCCC4)nc3c2)[C@@H](O)[C@H]1O [I-83] |  |  | > 1000 |  | 100 to 1000 | > 1000 | 10 to 100 |  |
| CNc1ccc2ccc(OC[C@H]3O[C@@H](n4cc(C(F)(F)F)c5c(N)ncnc54)[C@@H](F)[C@@H]3O)cc2n1 [I-38] |  |  | > 1000 |  | 10 to 100 | > 1000 | 100 to 1000 |  |
| Cc1cn2ccc(CC[C@H]3C[C@@H](n4ccc5c(N)ncnc54)[C@H](O)[C@@H]3O)cc2n1 [I-84] |  | > 1000 | > 1000 |  | > 1000 |  | < 10 |  |
| CNc1ccc2ccc(OC[C@H]3O[C@@H](n4cc(C5=CCN(C)CC5)c5c(N)ncnc54)[C@@H](F)[C@@H]3O)cc2n1 [I-35] |  |  | > 1000 |  | 10 to 100 | > 1000 | 100 to 1000 |  |
| CN(C)Cc1cccc(OC[C@H]2O[C@@H](n3cc(Br)c4c(N)ncnc43)[C@@H](F)[C@@H]2O)c1 [I-31] |  |  | > 1000 |  | > 1000 | > 1000 | 100 to 1000 |  |
| Nc1ccnc2cc(OC[C@H]3O[C@@H](n4cc(Br)c5c(N)ncnc54)[C@@H](F)[C@@H]3O)ccc12 [I-13] |  |  | > 1000 |  | 100 to 1000 |  | 10 to 100 | > 10000 |
| CNc1ccc2ccc(OC[C@@H]3C[C@@H](O)[C@H](n4cc(C5CCCC5)c5c(N)ncnc54)O3)cc2n1 [I-141] |  |  | > 1000 |  | 100 to 1000 | > 1000 | 100 to 1000 |  |
| CNc1ccc2ccc(OC[C@H]3C[C@@H](n4cc(C5CCCC5)c5c(N)ncnc54)C[C@@H]3O)cc2n1 [I-50] |  |  | > 1000 |  | 10 to 100 | > 1000 | 100 to 1000 |  |
| CNc1ccc2ccc(OC[C@H]3O[C@@H](n4cc(C)c5c(N)ncnc54)[C@@H](F)[C@@H]3O)cc2n1 [I-44] |  |  | > 1000 |  | 10 to 100 | > 1000 | 10 to 100 |  |
| Cn1ccnc1-c1ccc2ccc(OC[C@H]3O[C@@H](n4cc(Br)c5c(N)ncnc54)[C@@H](F)[C@@H]3O)cc2n1 [I-26] |  |  | > 1000 |  | > 1000 | > 1000 | 100 to 1000 |  |
| Cc1cc(N)c2ccc(OC[C@H]3O[C@@H](n4cc(Br)c5c(N)ncnc54)C[C@@H]3O)cc2n1 [I-19] |  |  | > 1000 |  | 100 to 1000 | > 1000 | 100 to 1000 | > 10000 |
| Nc1ncnc2c1ccn2[C@@H]1O[C@H](CCc2ccc3ccc(N4CCCC4)nc3c2)[C@@H](O)[C@H]1O [I-68] |  |  | > 1000 |  | 10 to 100 | > 1000 | 100 to 1000 | 1000 to 10000 |
| CNc1ccc2cnc(OC[C@H]3O[C@@H](n4cc(Br)c5c(N)ncnc54)[C@H](O)[C@@H]3O)nc2n1 [I-74] |  |  | > 1000 |  | > 1000 | > 1000 | 100 to 1000 | > 10000 |
| CNc1ccc2ccc(OC[C@H]3O[C@@H](n4cc(C5=CCNC5)c5c(N)ncnc54)[C@@H](F)[C@@H]3O)cc2n1 [I-32] |  |  | > 1000 |  | 10 to 100 | > 1000 | 100 to 1000 |  |
| CCNc1ccc2ccc(OC[C@H]3O[C@@H](n4ccc5c(N)ncnc54)[C@H](O)[C@@H]3O)cc2n1 [I-67] |  |  | > 1000 |  | < 10 | > 1000 | < 10 |  |
| CNc1ccc2ccc(OC[C@H]3O[C@@H](n4cc(-c5cc(F)cc(F)c5)c5c(N)ncnc54)[C@@H](F)[C@@H]3O)cc2n1 [I-43] | 100 to 1000 | > 1000 | > 1000 | 100 to 1000 |  |  |  |  |
| Nc1nc2ccc(OC[C@H]3O[C@@H](n4cc(Br)c5c(N)ncnc54)[C@@H](F)[C@@H]3O)cc2[nH]1 [I-21] |  |  | > 1000 |  | 100 to 1000 | > 1000 | 10 to 100 |  |
| Nc1ncnc2c1ccn2[C@@H]1C[C@H](COc2ccc3ccc(N4CCCC4)nc3c2)[C@@H](O)[C@H]1O [I-82] |  |  | > 1000 |  | 100 to 1000 | > 1000 | 100 to 1000 |  |
| CNc1ccc2ccc(OC[C@H]3O[C@@H](n4cc(C5CCN(C)CC5)c5c(N)ncnc54)[C@@H](F)[C@@H]3O)cc2n1 [I-24] |  |  | > 1000 |  | 10 to 100 | > 1000 | 100 to 1000 |  |
| CNc1ccc2ccc(OC[C@H]3O[C@@H](n4cc(-c5cccnc5)c5c(N)ncnc54)[C@@H](F)[C@@H]3O)cc2n1 [I-40] | 10 to 100 | > 1000 | > 1000 | 100 to 1000 |  |  |  |  |
